According to ChEMBL document CHEMBL6127107, “Oleanolic acid derivatives against drug-resistant bacteria and fungi by multi-targets to avoid drug resistance” (Eur J Med Chem, 2024):
In brackets after ≈: the same amount, converted by molar mass.

Assays:
Candida albicans = test: Antimicrobial activity against fluconazole-resistant Candida albicans; type: functional
Staphylococcus aureus [1] = test: Antimicrobial activity against methicillin-resistant Staphylococcus aureus 011; type: functional
Staphylococcus aureus [2] = test: Antimicrobial activity against Staphylococcus aureus 29; type: functional
Staphylococcus aureus [3] = test: Antimicrobial activity against Staphylococcus aureus 31; type: functional
Staphylococcus aureus [4] = test: Antimicrobial activity against Staphylococcus aureus 10; type: functional
Enterococcus faecalis = test: Antimicrobial activity against vancomycin resistant Enterococcus faecalis ATCC 51299; type: functional
Escherichia coli = test: Antimicrobial activity against Escherichia coli; type: functional
[5] = Selectivity index, ratio of HC50 for hemolytic activity against Mianyang red blood cells (unknown origin) to MIC for antimicrobial activity against methicillin resistant Staphylococcus aureus 003; type: toxicity, cell-based, RBC; conditions: read-out: Selectivity Index
Staphylococcus aureus [6] = test: Antimicrobial activity against methicillin-resistant Staphylococcus aureus 003; type: functional
Pseudomonas aeruginosa = test: Antimicrobial activity against Pseudomonas aeruginosa; type: functional
[7] = Hemolytic activity against Mianyang red blood cells (unknown origin); type: toxicity, cell-based, RBC

| Structure (SMILES) | MIC (Candida albicans) [µg/mL] | MIC (Staphylococcus aureus [1]) [µg/mL] | MIC (Staphylococcus aureus [2]) [µg/mL] | MIC (Staphylococcus aureus [3]) [µg/mL] | MIC (Staphylococcus aureus [4]) [µg/mL] | MIC (Enterococcus faecalis) [µg/mL] | MIC (Escherichia coli) [µg/mL] | selectivity ratio [5] | MIC (Staphylococcus aureus [6]) [µg/mL] | MIC (Pseudomonas aeruginosa) [µg/mL] | HC50 [7] [µg/mL] |
| --- | --- | --- | --- | --- | --- | --- | --- | --- | --- | --- | --- |
| CC(=O)O[C@H]1CC[C@]2(C)[C@H]3CC=C4[C@@H]5CC(C)(C)CC[C@]5(C(=O)NCCCN)CC[C@@]4(C)[C@]3(C)CC[C@H]2C1(C)C | 2 (≈ 3.6 µM) | 2 (≈ 3.6 µM) | 4 (≈ 7.21 µM) | 8 (≈ 14.4 µM) | 4 (≈ 7.21 µM) | 4 (≈ 7.21 µM) | > 64 | 39.2 | 2 (≈ 3.6 µM) | > 64 | 78.5 |
| C[C@@H]1[C@H](O)[C@@H](C)/C=C/C=C/C=C/C=C/C=C/C=C/C=C/[C@H](O[C@@H]2O[C@H](C)[C@@H](O)[C@H](N)[C@@H]2O)C[C@@H]2O[C@](O)(C[C@@H](O)C[C@@H](O)[C@H](O)CC[C@@H](O)C[C@@H](O)CC(=O)O[C@H]1C)C[C@H](O)[C@H]2C(=O)O [AMPHOTERICIN B] | 1 (≈ 1.08 µM) | – | – | – | – | – | – | 29.2 | – | – | 29.2 |
| CC(=O)O[C@H]1CC[C@]2(C)[C@H]3CC=C4[C@@H]5CC(C)(C)CC[C@]5(C(=O)NCCCCNC(=N)N)CC[C@@]4(C)[C@]3(C)CC[C@H]2C1(C)C | 2 (≈ 3.27 µM) | 2 (≈ 3.27 µM) | 2 (≈ 3.27 µM) | 4 (≈ 6.55 µM) | 2 (≈ 3.27 µM) | 2 (≈ 3.27 µM) | > 64 | 142 | 2 (≈ 3.27 µM) | > 64 | 284 |
| CC(=O)O[C@H]1CC[C@]2(C)[C@H]3CC=C4[C@@H]5CC(C)(C)CC[C@]5(C(=O)NCCCCCCCCNC(=N)N)CC[C@@]4(C)[C@]3(C)CC[C@H]2C1(C)C | 16 (≈ 24 µM) | 2 (≈ 3 µM) | 4 (≈ 6 µM) | 16 (≈ 24 µM) | 4 (≈ 6 µM) | 8 (≈ 12 µM) | > 64 | 57.9 | 4 (≈ 6 µM) | > 64 | 232 |
| CC1(C)CC[C@]2(C(=O)O)CC[C@]3(C)C(=CC[C@@H]4[C@@]5(C)CC[C@H](OC(=O)CCC(=O)O)C(C)(C)[C@@H]5CC[C@]43C)[C@@H]2C1 [OLEANOLIC ACID 3-O-SUCCINATE] | 32 (≈ 57.5 µM) | 16 (≈ 28.7 µM) | 8 (≈ 14.4 µM) | 32 (≈ 57.5 µM) | 16 (≈ 28.7 µM) | 32 (≈ 57.5 µM) | > 64 | > 64 | 16 (≈ 28.7 µM) | > 64 | > 1020 |
| CC1(C)CC[C@]2(C(=O)O)CC[C@]3(C)C(=CC[C@@H]4[C@@]5(C)CC[C@H](OCC(O)CCCCCCCCN)C(C)(C)[C@@H]5CC[C@]43C)[C@@H]2C1 (some centres not stated) | 32 (≈ 51 µM) | 8 (≈ 12.7 µM) | 8 (≈ 12.7 µM) | 32 (≈ 51 µM) | 8 (≈ 12.7 µM) | 16 (≈ 25.5 µM) | > 64 | 3.15 | 8 (≈ 12.7 µM) | > 64 | 25.2 |
| CC1(C)CC[C@]2(C(=O)O)CC[C@]3(C)C(=CC[C@@H]4[C@@]5(C)CC[C@H](OC(=O)CCCC(=O)O)C(C)(C)[C@@H]5CC[C@]43C)[C@@H]2C1 | 32 (≈ 56.1 µM) | 32 (≈ 56.1 µM) | 32 (≈ 56.1 µM) | 64 (≈ 112 µM) | 32 (≈ 56.1 µM) | 32 (≈ 56.1 µM) | > 64 | > 32 | 32 (≈ 56.1 µM) | > 64 | > 1020 |
| CC1(C)CC[C@]2(C(=O)O)CC[C@]3(C)C(=CC[C@@H]4[C@@]5(C)CC[C@H](OCC(O)CCCCN)C(C)(C)[C@@H]5CC[C@]43C)[C@@H]2C1 (some centres not stated) | 16 (≈ 28 µM) | 4 (≈ 6.99 µM) | 4 (≈ 6.99 µM) | 8 (≈ 14 µM) | 4 (≈ 6.99 µM) | 8 (≈ 14 µM) | > 64 | 6.54 | 4 (≈ 6.99 µM) | > 64 | 26.1 |
| CC1(C)CC[C@]2(C(=O)O)CC[C@]3(C)C(=CC[C@@H]4[C@@]5(C)CC[C@H](OCC(O)CCCCNC(=N)N)C(C)(C)[C@@H]5CC[C@]43C)[C@@H]2C1 (some centres not stated) | 4 (≈ 6.52 µM) | 2 (≈ 3.26 µM) | 8 (≈ 13 µM) | 8 (≈ 13 µM) | 8 (≈ 13 µM) | 4 (≈ 6.52 µM) | > 64 | 330 | 2 (≈ 3.26 µM) | > 64 | 660 |
| CC1(C)CC[C@]2(C(=O)O)CC[C@]3(C)C(=CC[C@@H]4[C@@]5(C)CC[C@H](OCC(O)CCCCCCCCNC(=N)N)C(C)(C)[C@@H]5CC[C@]43C)[C@@H]2C1 (some centres not stated) | 16 (≈ 23.9 µM) | 4 (≈ 5.97 µM) | 8 (≈ 11.9 µM) | 16 (≈ 23.9 µM) | 8 (≈ 11.9 µM) | 8 (≈ 11.9 µM) | > 64 | 72.1 | 8 (≈ 11.9 µM) | > 64 | 577 |
| CC(=O)O[C@H]1CC[C@]2(C)[C@H]3CC=C4[C@@H]5CC(C)(C)CC[C@]5(C(=O)NCCCCCCCCN)CC[C@@]4(C)[C@]3(C)CC[C@H]2C1(C)C | 64 (≈ 102 µM) | 4 (≈ 6.4 µM) | 8 (≈ 12.8 µM) | 32 (≈ 51.2 µM) | 8 (≈ 12.8 µM) | 16 (≈ 25.6 µM) | > 64 | 7.53 | 8 (≈ 12.8 µM) | > 64 | 40.2 |
| CC1(C)CC[C@]2(C(=O)O)CC[C@]3(C)C(=CC[C@@H]4[C@@]5(C)CC[C@H](O)C(C)(C)[C@@H]5CC[C@]43C)[C@@H]2C1 [OLEANOLIC_ACID] | > 64 | > 64 | 64 (≈ 140 µM) | 32 (≈ 70.1 µM) | 64 (≈ 140 µM) | 64 (≈ 140 µM) | – | > 16 | 64 (≈ 140 µM) | – | > 1020 |
